Reference: patent US8629116B2, “Method for inducing a TRIF-bias” (priority 2008, dated 2014)
Read-outs that look alike come from different tables or passages of the source.

What was measured:
[1] = tested on: RAW264.7 siRNA cell lines; experiment: Cytokine production in stably transfected RAW264.7 siRNA (MyD88, TRIF, LUC) cell lines; format: cell-based, mouse; conditions: for potency for TNFα production: 20 hours
Procedure: Exponentially growing RAW264.7 cells are stably transfected with FuGene 6 by conventional methods in Optimem (Roche, Indianapolis Ind.) with psiRNA-mTICAM1, psiRNA-mMyD88, or psiRNA-LUC (irrelevant control) plasmids containing shRNA sequences for protein knockdown, a Zeocin resistance gene and a GFP coding sequence (InVivoGen, San Diego, Calif.). Transfection efficiency after selection is determined by percent GFP positive cells using the ImageStream.
RNA interference (RNAi) is utilized to disrupt expression of specific genes that are involved in TLR signaling pathways: […] and MyD88. RAW264.7 siRNA cell lines are prepared using commercially available plasmids (Invivogen). These plasmids contain a Zeocin selection marker, a sequence coding for GFP and the sequence coding for shRNA for knockdown. Once the cells are efficiently transfected, stable cell lines are generated through antibiotic selection. Purity of cultures is determined by GFP+ cells within the culture system. An irrelevant plasmid is also used to stably transfect cells as a control.
To determine whether TRIF or MyD88 are required for the cytokine response after stimulation with L and D isomers, stably transfected siRNA cell lines are stimulated for 20 hours (in an assay similar to the MM6 potency assay) or 4 hours (to capture MyD88 induced cytokine responses) and cellular supernatants are assayed for TNFα (MyD88) and IP-10 (TRIF). Twenty hours post-stimulation, the irrelevant control, LUC cell line has a similar IP-10 induction pattern as the wt RAW264.7 cells shown previously. […] When TRIF is intact (in MyD88 knockdown cell lines) the IP-10 levels remain dose responsive and total cytokine is increased above the irrelevant control (LUC). Other assay systems (including human and mouse systems) support the hypothesis that both L and D isomers are efficient at inducing TRIF mediated cytokines.
In order to better discriminate the MyD88 requirement for TNFα production, siRNA knockdown cell lines are examined for TNFα production after four hours of AGP stimulation (FIG. 35). […]

[2] = tested on: human peripheral blood mononuclear cells (PBMCs); experiment: Cytokine/chemokine induction in fresh human PBMCs; format: cell-based
Procedure: (§1) Peripheral blood mononuclear cells (PBMCs) are isolated from the blood of healthy donors via a Ficoll Hypaque 1.077 gradient and treated with agonists or are used to isolate adherent monocytes in monocyte media (RPMI 1640 (ATCC), 10% human AB serum (Lonza/BioWhittaker), 100 U/mL penicillin/100 ug/mL streptomycin (Sigma), 50 uM 2-mercaptoethanol (Sigma) as described (Stover et al. 4440-49; Kawai et al. 5887-94; Gervassi et al. 7231-39). Monocyte-derived macrophages are produced by incubating adherent monocytes for 5 days in monocyte media with 50 ng/mL rhM-CSF (R&D Systems) with media changes at day 3 and day 5 before agonist treatment. Monocyte-derived dendritic cells (DC) are produced by incubating adherent monocytes for 7 days in monocyte media with 10 ng/mL rhGM-CSF and 10 ng/mL rhIL-4 (R&D Systems) with media changes on day 3 and day 6.
Expression of TNFα and MIP-1α are dependent upon signaling through the TLR4 adaptor, MyD88, while expression of IP-10 and RANTES are dependent upon signaling through the TLR4 adaptor, TRIF/TICAM-1 (Hoebe et al, Kawai et al).

[3] = tested on: human monocyte-derived dendritic cells; experiment: IL-12p70 and IL-23 induction in human monocyte-derived dendritic cells; format: cell-based
Procedure: as §1
Induction of inflammatory cytokines and maturation of dendritic cells (DC) contribute to the promotion of a robust immune response during the administration of an adjuvanted vaccine. Therefore, the capacity of CRX527 and CRX-547 to induce IL-12p70 in human DCs is compared. The induction of IL-12p70 promotes the development of the Th1 helper T cell lineage and favors development of a cell-mediated immune response (Goriely, Neurath, and Goldman 81-86; Gutcher and Becher 1119-27). […]

TLR4 receptor complex = molecular target: T1, TLR4 receptor complex (Homo sapiens, UniProt O00206+Q9Y6Y9); experiment: Inhibition of CRX-527- or LPS-induced cytokines by CRX-547 in primary human adherent monocytes; format: cell-based; conditions: for IC50: added simultaneously
T1 construct: endogenous in cells; host or cells: primary human adherent monocytes isolated from PBMCs of healthy donors
T1 sequence (O00206 24-839): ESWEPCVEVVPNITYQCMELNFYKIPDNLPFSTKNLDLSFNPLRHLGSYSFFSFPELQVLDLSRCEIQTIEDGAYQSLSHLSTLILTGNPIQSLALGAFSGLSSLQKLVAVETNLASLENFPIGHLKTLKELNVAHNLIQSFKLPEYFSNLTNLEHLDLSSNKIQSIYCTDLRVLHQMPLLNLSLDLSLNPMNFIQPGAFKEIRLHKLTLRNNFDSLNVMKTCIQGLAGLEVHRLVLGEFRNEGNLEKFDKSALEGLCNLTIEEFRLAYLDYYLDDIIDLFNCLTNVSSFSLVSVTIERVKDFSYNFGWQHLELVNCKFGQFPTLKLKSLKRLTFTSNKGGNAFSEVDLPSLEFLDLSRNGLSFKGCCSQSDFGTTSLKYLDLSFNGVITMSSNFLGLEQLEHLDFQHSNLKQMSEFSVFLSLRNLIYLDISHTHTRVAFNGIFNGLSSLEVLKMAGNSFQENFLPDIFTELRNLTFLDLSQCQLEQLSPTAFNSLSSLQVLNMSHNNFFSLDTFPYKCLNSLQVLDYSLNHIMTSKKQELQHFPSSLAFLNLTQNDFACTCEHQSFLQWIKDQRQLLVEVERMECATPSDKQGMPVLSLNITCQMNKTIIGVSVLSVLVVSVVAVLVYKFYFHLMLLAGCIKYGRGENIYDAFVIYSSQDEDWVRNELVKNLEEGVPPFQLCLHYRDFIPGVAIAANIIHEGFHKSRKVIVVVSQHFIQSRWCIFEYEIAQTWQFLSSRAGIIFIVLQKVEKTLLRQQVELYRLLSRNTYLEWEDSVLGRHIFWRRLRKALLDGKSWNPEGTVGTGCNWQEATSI
T1 sequence (Q9Y6Y9 19-160): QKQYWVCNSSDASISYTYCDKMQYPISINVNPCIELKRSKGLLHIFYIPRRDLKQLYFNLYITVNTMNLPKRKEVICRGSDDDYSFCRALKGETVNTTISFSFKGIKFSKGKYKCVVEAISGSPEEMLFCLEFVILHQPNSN
Procedure: as §1
CRX-527 signals through the TLR4/MD2 receptor complex leading to activation of transcription factors that lead to induction of cytokines and chemokines. […] (FIG. 10).
To that end, human primary monocytes are treated with a dose range of CRX-527 in the presence of increasing concentrations of CRX-547.
The resulting dose-response curves are fit with a 4 parameter logistic equation.
Plotting the log EC50 shift (DR-1) for each concentration of CRX-547 versus the log of the concentration of CRX-547 (Schild regression) allows us to compare the calculated affinity (Kbapp) with the EC50 for CRX-547 calculated from the CRX-547 and CRX-527 dose-response curve. […] (FIG. 10B.)

[4] = compared among LPS, CRX-527, CRX-547

CCCCCCCCCCCC(CC(=O)NC(COC1OC(CO)C(OP(=O)(O)O)C(OC(=O)CC(CCCCCCCCCCC)OC(=O)CCCCCCCCC)C1NC(=O)CC(CCCCCCCCCCC)OC(=O)CCCCCCCCC)C(=O)O)OC(=O)CCCCCCCCC.CCN(CC)CC (stereo not drawn) [CRX-527]
potency for TNFα production ([1]; MyD88 or TRIF knocked down): same increased potency
potency at inducing TNFα versus equivalent dose of CRX-547 ([1]; four hours): more potent
potency for TNFα production ([1]; irrelevant control (LUC)): more potent

CCCCCCCCCCCC(CC(=O)NC(COC1OC(CO)C(OP(=O)(O)O)C(OC(=O)CC(CCCCCCCCCCC)OC(=O)CCCCCCCCC)C1NC(=O)CC(CCCCCCCCCCC)OC(=O)CCCCCCCCC)C(=O)O)OC(=O)CCCCCCCCC.CCN(CC)CC (stereo not drawn) [CRX-547]
induction of MIP-1α (MyD88-dependent) [2, 4]: significantly lower levels
induction of TNFα (MyD88-dependent) [2, 4]: significantly lower levels
induction of IP-10 (TRIF-dependent) ([2]; relative to CRX-527 and LPS): comparable levels
induction of RANTES (TRIF-dependent) ([2]; relative to CRX-527 and LPS): comparable levels
IL-23 expression ([3]; dendritic cells, compared with CRX-527): reduced virtually to base-line levels
IL-12p70 response ([3]; human monocyte-derived DC, compared to CRX-527 and LPS): significantly reduced
effect of CRX-547 on MCP-1 (TRIF-dependent) induction by fixed CRX-527 or LPS (TLR4 receptor complex; at higher concentrations of CRX-547): increased additively
IC50 (TLR4 receptor complex; fixed CRX-527 100 nM, read-out: IC50 for inhibition of TNFα induction by CRX-527): 48 ± 30 nM
IC50 (TLR4 receptor complex; fixed LPS 100 nM, read-out: IC50 for inhibition of TNFα induction by LPS): 18 ± 12 nM
effect of CRX-547 on TNFα induction by fixed concentration of CRX-527 or LPS (TLR4 receptor complex; increasing CRX-547 added prior to CRX-527 or LPS): inhibited
agonist character for induction of MyD88-dependent cytokines/chemokines (TLR4 receptor complex; relative to CRX-527 and LPS, monocytic cells): partial agonist
Kd (TLR4 receptor complex; shift of CRX-527-induced TNFα dose-response curves, read-out: affinity estimate (Kbapp) by Schild regression): 0.33 nM
